Data as given in ChEMBL document CHEMBL1201862, “PubChem BioAssay data set” (2004).
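Growth conditions: 96-well plates. Treatment: test compound, 48 hours, 5 concentrations. Analysis: linear interpolation between bracketing concentrations; unreached endpoints set to highest concentration. GI50 = concentration required for 50% inhibition of growth.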 Active and inactive are the calls of the source. Rule as the data show it: active = GI50 up to about 1.1 µM and inactive = higher.

How the values were obtained:
Test in all cases: growth of human tumour cells (NCI), 48 h
[1] = test system: SW-620
[2] = test system: NCI-H460
[3] = test system: SN12C
[4] = test system: UACC-257
[5] = test system: OVCAR-5
[6] = test system: RPMI-8226
[7] = test system: SNB-75
[8] = test system: OVCAR-4
[9] = test system: MDA-MB-435
[10] = test system: Hs-578T
[11] = test system: SNB-19
[12] = test system: K562
[13] = test system: SF-268
[14] = test system: UACC-62
[15] = test system: U-251
[16] = test system: MCF7
[17] = test system: HT-29
[18] = test system: MDA-N
[19] = test system: COLO 205

SMILES | GI50 [1] | GI50 [2] | GI50 [3] | GI50 [4] | GI50 [5] | GI50 [6] | GI50 [7] | GI50 [8] | GI50 [9] | GI50 [10] | GI50 [11] | GI50 [12] | GI50 [13] | GI50 [14] | GI50 [15] | GI50 [16] | GI50 [17] | GI50 [18] | GI50 [19]
CN1CCN(c2nc3c(c(=O)n(C)c(=O)n3C)n2C)CC1 | > 100 µM (inactive) | > 100 µM (inactive) | > 100 µM (inactive) | > 100 µM (inactive) | > 100 µM (inactive) | > 100 µM (inactive) | > 100 µM (inactive) | > 100 µM (inactive) | > 100 µM (inactive) | > 100 µM (inactive) | > 100 µM (inactive) | > 100 µM (inactive) | > 100 µM (inactive) | > 100 µM (inactive) | > 100 µM (inactive) | > 100 µM (inactive) | > 100 µM (inactive) | > 100 µM (inactive) | > 100 µM (inactive)
COc1cc(NCc2ccc3oc(=O)c(-c4ccccc4)nc3c2)cc(OC)c1OC | > 10 µM (inactive) | > 10 µM (inactive) | > 10 µM (inactive) | > 10 µM (inactive) | > 10 µM (inactive) | > 10 µM (inactive) | > 10 µM (inactive) | > 10 µM (inactive) | > 10 µM (inactive) | > 10 µM (inactive) | > 10 µM (inactive) | > 10 µM (inactive) | > 10 µM (inactive) | > 10 µM (inactive) | > 10 µM (inactive) | > 10 µM (inactive) | > 10 µM (inactive) | > 10 µM (inactive) | > 10 µM (inactive)
O=c1cc(NCc2ccncc2)[nH]c(=O)[nH]1 | > 100 µM (inactive) | > 100 µM (inactive) | > 100 µM (inactive) | > 100 µM (inactive) | > 100 µM (inactive) | > 100 µM (inactive) | > 100 µM (inactive) | > 100 µM (inactive) | > 100 µM (inactive) | > 100 µM (inactive) | > 100 µM (inactive) | > 100 µM (inactive) | > 100 µM (inactive) | > 100 µM (inactive) | > 100 µM (inactive) | > 100 µM (inactive) | > 100 µM (inactive) | > 100 µM (inactive) | > 100 µM (inactive)
N#Cc1c(-c2ccccc2)c2c([nH]c1=O)-c1cc([N+](=O)[O-])ccc1CCC2 | 36.7 µM (inactive) | 30.4 µM (inactive) | 44.1 µM (inactive) | 31.1 µM (inactive) | 83.4 µM (inactive) | 32.9 µM (inactive) | < 0.01 µM (active) | 34 µM (inactive) | 32.3 µM (inactive) | 68.2 µM (inactive) | 36.7 µM (inactive) | 34.1 µM (inactive) | 26.6 µM (inactive) | 17.5 µM (inactive) | 33.3 µM (inactive) | 27.7 µM (inactive) | 34.8 µM (inactive) | 36.5 µM (inactive) | 26.9 µM (inactive)
COc1cc(OC)c(-c2cc(=O)c3c(OC)c(OC)c(OC)c(OC)c3o2)cc1OC | > 100 µM (inactive) | > 100 µM (inactive) | > 100 µM (inactive) | > 100 µM (inactive) | > 100 µM (inactive) | > 20.1 µM (inactive) | 14.9 µM (inactive) | > 90.8 µM (inactive) | > 100 µM (inactive) | 32 µM (inactive) | > 87.7 µM (inactive) | > 73.1 µM (inactive) | > 100 µM (inactive) | 29.6 µM (inactive) | 64 µM (inactive) | > 100 µM (inactive) | > 100 µM (inactive) | > 100 µM (inactive) | > 100 µM (inactive)
CCCN(CCC)C(=S)N/N=C(/C)c1ccccc1O | 5.55 µM (inactive) | 2.51 µM (inactive) | 5.82 µM (inactive) | 7.71 µM (inactive) | 10.3 µM (inactive) | 4.33 µM (inactive) | 5.56 µM (inactive) | 5.96 µM (inactive) | 8.38 µM (inactive) | > 70 µM (inactive) | 14.3 µM (inactive) | 4.06 µM (inactive) | 4.42 µM (inactive) | 3.19 µM (inactive) | 3.84 µM (inactive) | 4.02 µM (inactive) | 6.28 µM (inactive) | 9.77 µM (inactive) | 6.46 µM (inactive)
